{
  "source": "patent US20130072404A1",
  "about": "“APPARATUS AND PROCESSES FOR GENERATING VARIABLE CONCENTRATION OF SOLUTES IN MICRODROPLETS” (UNIVERSITE DE STRASBOURG, priority 2009, published 2013)",
  "key": {"β-galactosidase [1]": {"molecular_target": "T1, β-galactosidase (Escherichia coli, UniProt P00722)", "test": "High-resolution dose-response screening of β-galactosidase inhibition in droplets (Example 2), FDG substrate", "type": "biochemical, E. coli", "parameters": "purchased Grade VIII", "conditions": "for IC50: 4-parameter Hill fit", "description": "PBS was pumped through the autosampler at a rate of 200 μl/hour. On-chip, this flow was combined with solutions of enzyme and substrate, both flowing at 100 μl/hour. The enzyme solution was 20 U/ml of E. coli Grade VIII β-galactosidase in PBS containing 4 g/l BSA. The substrate solution was 240 μM FDG and 400 nM sodium fluorescein in PBS. The combined aqueous flow was segmented into droplets by the oil/surfactant solution flowing at a rate of 400 μl/hour. The optical setup was positioned just before the delay line and individual droplets were discriminated by green fluorescence. The measurement at this point provided a “pseudo blank” (no enzyme activity, equivalent to 100% inhibition) for the inhibition calculations later on: droplets with zero activity were not observed to change fluorescence between production and any measurement point in the delay line (FIG. 17).\nThe optical setup was repositioned to the 30-second measurement point and the droplets were analyzed continuously. Meanwhile, the autosampler was used to load 1 μl from each well of a 96-well plate into the PBS stream running through the dispersion capillary. Each well contained 20 μl of 100 μM DY-682 in PBS, plus one of four different concentrations of the inhibitor 2-phenylethyl β-D-thiogalactoside (PETG; Invitrogen Corp., California, USA): 600 μM (“high”), 120 μM (“medium”), 24 μM (“low”), or zero. As each Gaussian-like pulse of DY-682 and PETG, mixed with the reaction components and segmented into droplets, arrived at the optical detector, a dose-response profile was recorded.\nOffline, a Python script was used to group the droplets in the front edge of each Gaussian-like pulse by injection (˜10,000 droplets); these droplets are referred to as the injection's “dose-response droplets”. 1 second's worth of droplets directly preceding each Gaussian-like pulse were also stored (˜800 droplets). The mean green fluorescence of these droplets provided the “control” value (0% inhibition) for the injection and this value was used with the pseudo blank value (corresponding to 100% inhibition) to calculate the percentage inhibition in the subsequent dose-response droplets. […] The corrected green signal was then used to calculate the proportion of inhibition (I) in each droplet using the following equation: […]\nwhere M is corrected measured fluorescence, B is the pseudo blank value, and C is the control value. In parallel, the NIR fluorescence signal for each droplet was used to calculate the concentration of co-injected compound. […]\nFor each of the 16 “medium” injections the quality of the assay was determined by calculating the Z-factor (Zhang et al., 1999)."}, "β-galactosidase [2]": {"molecular_target": "T1, β-galactosidase", "test": "Droplet microfluidic IC50 measurement, Taylor dispersion dilution (Example 1c), RBG substrate", "type": "biochemical", "parameters": "purchased Sigma-Aldrich Co", "conditions": "Taylor dispersion pulse, 30 s droplet incubation, 4-parameter log-logistic fit; read-out: IC50 of PETG in the enzyme/substrate/inhibitor system", "text": "In the examples, the model systems comprised an enzyme, a substrate, and an inhibitor for IC50 measurements and an enzyme and substrate alone for KM measurements. In all cases the enzyme was β-galactosidase (Sigma-Aldrich Co.), the substrate was resorufin β-D-galactopyranoside (RBG; Invitrogen Corporation), and the inhibitor was phenylethyl β-D-thiogalactopyranoside (PETG; Invitrogen Corporation).\nA microfluidic emulsion of 90 pl aqueous microdroplets was generated by injecting the microfluidic device (FIG. 2) with an oil phase and three aqueous phases. The oil phase consisted of 1% (w/w) EA surfactant dissolved in HFE-7500 flowing at 680 μl/hr. […]\nThe autosampler was used to introduce a single 1 μl pulse of 120 μM PETG (the inhibitor) to the PBS flowing to the device through the silane-treated capillary. The inclusion of 40 μM of the fluorophore sodium fluorescein with the inhibitor allowed the concentration of PETG to be inferred downstream from the degree of fluorescence observed in the 500-520 nm channel. […]\nThe microdroplets in the initial climb in inhibitor concentration (the leading front of the inhibitor pulse) were plotted in an XY graph with initial reaction rate (inferred from resorufin fluorescence after 30 seconds of droplet incubation) against inhibitor concentration (assumed to be proportional to sodium fluorescein fluorescence). […]"}},
  "data": [
    {"smiles": "OC[C@H]1O[C@@H](SCCc2ccccc2)[C@H](O)[C@@H](O)[C@H]1O", "note": "[PETG, phenylethyl β-D-thiogalactopyranoside]", "values": [
      {"measurement": "inhibition", "setting": "β-galactosidase [1]; droplets containing 50 μM PETG", "result": 97.5, "unit": "%"},
      {"measurement": "IC50", "setting": "β-galactosidase [1]; mean IC50, high (600 μM) injected PETG", "result": 1980, "unit": "nM"},
      {"measurement": "IC50", "setting": "β-galactosidase [1]; mean IC50, low (24 μM) injected PETG", "result": 1980, "unit": "nM"},
      {"measurement": "IC50", "setting": "β-galactosidase [1]; mean IC50, medium (120 μM) injected PETG, n=16", "result": 2060, "unit": "nM"},
      {"measurement": "IC50", "setting": "β-galactosidase [2]", "result": 3.04, "unit": "µM"}
    ]}
  ]
}
